One data set in a line: Solubility pH 7. Conditions: pH 7, aqueous buffer.
The target of data set [1] is T1, immunoproteasome subunit LMP7 (Homo sapiens, UniProt P28062).
T1 construct: Lysate from the human acute lymphoblastic leukemia cell line, MOLT-4; endogenous in cells; host or cells: MOLT-4
The data set can be described thus: Proteasome active-site ELISA (ProCISE), LMP7, MOLT-4 lysate. In kind it is biochemical. Particulars: MOLT4 lysate, 1 h continuous treatment, 25° C. A digest of the protocol: (§1)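 MOLT-4 cell lysate treated 1 h at 25 °C with compound; probe-bound subunits denatured, pulled down on streptavidin beads and detected with subunit-specific antibodies plus HRP chemiluminescence.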
For orientation: An ELISA detects its analyte on a solid surface through an enzyme-linked reagent.

Data set [2] has as its target T2, proteasome subunit β5 (beta5) (Homo sapiens, UniProt P28074).
T2 construct: Lysate from the human acute lymphoblastic leukemia cell line, MOLT-4; endogenous in cells; host or cells: MOLT-4
The data set can be described thus: Proteasome active-site ELISA (ProCISE), beta5, MOLT-4 lysate. In kind it is biochemical. Conditions: MOLT4 lysate, human, 1 h continuous treatment, 25° C. Put shortly:
as §1

For orientation: solubility means how much of the substance goes into solution per volume. A low value points to a poorly soluble substance. The term pIC50 denotes the IC50 on a negative log10 scale, so that one unit is a factor of ten.

SMILES strings stand for the structures. pIC50: −log10 of the molar value. ≈ marks a conversion by molar mass, not a printed value.

`C[C@@H](NC(=O)[C@H]1CC[C@H](O)CC1)C(=O)N[C@@H](Cc1ccc(S(C)(=O)=O)cc1)C(=O)N[C@@H](CC1=CCCC1)C(=O)[C@@]1(C)CO1` [Compound C-1096, (1r,4R)-N-((R)-1-(((S)-1-(((S)-3-(cyclopent-1-en-1-yl)-1-((R)-2-methyloxiran-2-yl)-1-oxopropan-2-yl)amino)-3-(4-(methylsulfonyl)phenyl)-1-oxopropan-2-yl)amino)-1-oxopropan-2-yl)-4-hydroxycyclohexanecarboxamide] yielded a solubility in “Solubility pH 7” of 917 µg/mL (≈ 1.48 mM). In addition, the pIC50 in data set [1] is 7.60; in data set [2], 6.06.

In “Solubility pH 7”, `COc1ccc(C[C@H](NC(=O)[C@@H](C)NC(=O)[C@H]2CC[C@@H](O)CC2)C(=O)N[C@@H](CC2=CCCCC2)C(=O)[C@@]2(C)CO2)cc1` [Compound C-1097, (1s,4S)-N-((R)-1-(((S)-1-(((S)-3-(cyclohex-1-en-1-yl)-1-((R)-2-methyloxiran-2-yl)-1-oxopropan-2-yl)amino)-3-(4-methoxyphenyl)-1-oxopropan-2-yl)amino)-1-oxopropan-2-yl)-4-hydroxycyclohexanecarboxamide] yielded a solubility of 256 µg/mL (≈ 0.439 mM). The pIC50 was 7.66 in data set [1] and 6.49 in data set [2].

For the compound `C[C@@H](NC(=O)[C@H]1CC[C@H](O)CC1)C(=O)N[C@@H](Cc1ccc(C#N)cc1)C(=O)N[C@@H](CC1CCCC1)C(=O)[C@@]1(C)CO1` [Compound C-1103, (1r,4R)-N-((R)-1-(((S)-3-(4-cyanophenyl)-1-(((S)-3-cyclopentyl-1-((R)-2-methyloxiran-2-yl)-1-oxopropan-2-yl)amino)-1-oxopropan-2-yl)amino)-1-oxopropan-2-yl)-4-hydroxycyclohexanecarboxamide], the solubility in “Solubility pH 7” is 2150 µg/mL (≈ 3.79 mM). For the same compound, the pIC50 was 7.41 in data set [1] and 5.71 in data set [2].

Take `COc1ccc(C[C@H](NC(=O)[C@H](CO)NC(=O)CN2CCOCC2)C(=O)N[C@@H](CC2=CCCCC2)C(=O)[C@@]2(C)CO2)cc1` [Compound C-1104, (S)-N-((S)-3-(cyclohex-1-en-1-yl)-1-((R)-2-methyloxiran-2-yl)-1-oxopropan-2-yl)-2-((S)-3-hydroxy-2-(2-morpholinoacetamido)propanamido)-3-(4-methoxyphenyl)propanamide]: the concentration in solution in “Solubility pH 7” (solubility) was 3270 µg/mL (≈ 5.44 mM). Also, the pIC50 is 7.14 in data set [1] and 5.66 in data set [2].

On to `C[C@@H](NC(=O)[C@H]1CC[C@H](O)CC1)C(=O)N[C@@H](Cc1ccc2[nH]cnc2c1)C(=O)N[C@@H](CC1CCCC1)C(=O)[C@@]1(C)CO1` [Compound C-1105, (1r,4R)-N-((R)-1-(((S)-3-(1H-benzo[d]imidazol-5-yl)-1-(((S)-3-cyclopentyl-1-((R)-2-methyloxiran-2-yl)-1-oxopropan-2-yl)amino)-1-oxopropan-2-yl)amino)-1-oxopropan-2-yl)-4-hydroxycyclohexanecarboxamide], for which the concentration in solution in the data set “Solubility pH 7” (solubility) was 5690 µg/mL (≈ 9.79 mM). Further, the results for the pIC50 in data set [1] and in data set [2] were 7.31 and 5.49, respectively.

`CC[C@H](NC(=O)CN1CCOCC1)C(=O)N[C@@H](Cc1ccc(OC)cc1)C(=O)N[C@@H](CC1CCCC1)C(=O)[C@@]1(C)CO1` [Compound C-1106, (S)-N-((S)-1-(((S)-3-cyclopentyl-1-((R)-2-methyloxiran-2-yl)-1-oxopropan-2-yl)amino)-3-(4-methoxyphenyl)-1-oxopropan-2-yl)-2-(2-morpholinoacetamido)butanamide] came in with a solubility in the data set “Solubility pH 7” of 960 µg/mL (≈ 1.64 mM). Also, the figures for the pIC50 in data set [1] and in data set [2] were 7.30 and 6.55, respectively.

In turn, `COc1ccc(C[C@H](NC(=O)[C@H](CO)NC(=O)CN2CCOCC2)C(=O)N[C@@H](CC2=CCCCC2)C(=O)[C@@]2(C)CO2)cc1O` [Compound C-1109, (S)-N-((S)-3-(Cyclohex-1-en-1-yl)-1-((R)-2-methyloxiran-2-yl)-1-oxopropan-2-yl)-2-((S)-3-hydroxy-2-(2-morpholinoacetamido)propanamido)-3-(3-hydroxy-4-methoxyphenyl)propanamide] yielded a solubility in “Solubility pH 7” of 3820 µg/mL (≈ 6.2 mM). The pIC50 in data set [1] is 6.74; in data set [2], 5.39.

`C[C@]1(C(=O)[C@H](CC2=CCCCC2)NC(=O)[C@H](Cc2ccc(S(C)(=O)=O)cc2)NC(=O)[C@H](CO)NC(=O)CN2CCOCC2)CO1` [Compound C-1110, (S)-N-((S)-3-(Cyclohex-1-en-1-yl)-1-((R)-2-methyloxiran-2-yl)-1-oxopropan-2-yl)-2-((S)-3-hydroxy-2-(2-morpholinoacetamido)propanamido)-3-(4-(methylsulfonyl)phenyl)propanamide] had a solubility in the data set “Solubility pH 7” of 8380 µg/mL (≈ 12.9 mM). In addition, the pIC50 in data set [1] is 6.66; in data set [2], 5.36.

In “Solubility pH 7”, `COc1ccc([C@@H](O)[C@H](NC(=O)[C@H](CO)NC(=O)CN2CCOCC2)C(=O)N[C@@H](CC2=CCCCC2)C(=O)[C@@]2(C)CO2)cc1` [Compound C-1116, (2S,3R)-N-((S)-3-(Cyclohex-1-en-1-yl)-1-((R)-2-methyloxiran-2-yl)-1-oxopropan-2-yl)-3-hydroxy-2-((S)-3-hydroxy-2-(2-morpholinoacetamido)propanamido)-3-(4-methoxyphenyl)propanamide] yielded a solubility of 8230 µg/mL (≈ 13.3 mM). Also, the pIC50 in data set [1] was 7.30; in data set [2], 5.53.

`Cc1ccc(C[C@H](NC(=O)[C@H](C)NC(=O)CN2CCOCC2)C(=O)N[C@@H](CC2CCCC2)C(=O)[C@@]2(C)CO2)cc1O` [Compound C-1117, (S)-N-((S)-3-Cyclopentyl-1-((R)-2-methyloxiran-2-yl)-1-oxopropan-2-yl)-3-(3-hydroxy-4-methylphenyl)-2-((S)-2-(2-morpholinoacetamido)propanamido)propanamide]: the solubility in the data set “Solubility pH 7” was 1560 µg/mL (≈ 2.73 mM). Moreover, the pIC50 in data set [1] is 7.00; in data set [2], 5.96.

In the data set “Solubility pH 7”, `COc1ccc(C[C@H](NC(=O)[C@H](C)NC(=O)CN2CCC(O)CC2)C(=O)N[C@@H](CC2=CCCC2)C(=O)[C@@]2(C)CO2)cc1` [Compound C-1118, (S)-N-((S)-3-(Cyclopent-1-en-1-yl)-1-((R)-2-methyloxiran-2-yl)-1-oxopropan-2-yl)-2-((S)-2-(2-(4-hydroxypiperidin-1-yl)acetamido)propanamido)-3-(4-methoxyphenyl)propanamide] gave a solubility of 6260 µg/mL (≈ 10.7 mM). The negative-log IC50 (pIC50) in data set [1] is 7.36; in data set [2] it was 6.39.

As for `C[C@H](NC(=O)CN1CCOCC1)C(=O)N[C@@H](Cc1cc[n+]([O-])cc1)C(=O)N[C@@H](CC1CCCC1)C(=O)[C@@]1(C)CO1` [Compound C-1119, 4-((S)-3-(((S)-3-cyclopentyl-1-((R)-2-methyloxiran-2-yl)-1-oxopropan-2-yl)amino)-2-((S)-2-(2-morpholinoacetamido)propanamido)-3-oxopropyl)pyridine 1-oxide], the solubility in the data set “Solubility pH 7” amounted to 10600 µg/mL (≈ 18.9 mM). Also, the figures for the pIC50 in data set [1] and in data set [2] were 6.08 and 5.86, respectively.

As for `C[C@H](NC(=O)CN1CCOCC1)C(=O)N[C@@H](Cc1ccc(S(C)(=O)=O)cc1)C(=O)N[C@@H](CC1=CCCC1)C(=O)[C@@]1(C)CO1` [Compound C-1125, (S)-N-((S)-3-(cyclopent-1-en-1-yl)-1-((R)-2-methyloxiran-2-yl)-1-oxopropan-2-yl)-3-(4-(methylsulfonyl)phenyl)-2-((S)-2-(2-morpholinoacetamido)propanamido)propanamide], the solubility in the data set “Solubility pH 7” turned out to be 7720 µg/mL (≈ 12.5 mM). Also, the results for the pIC50 in data set [1] and in data set [2] were 7.01 and 6.25, respectively.

As to `COc1ccc(C[C@H](NC(=O)[C@H](C)NC(=O)CN2CCS(=O)(=O)CC2)C(=O)N[C@@H](CC2=CCCCC2)C(=O)[C@@]2(C)CO2)cc1` [Compound C-1127, (S)-N-((S)-3-(cyclohex-1-en-1-yl)-1-((R)-2-methyloxiran-2-yl)-1-oxopropan-2-yl)-2-((S)-2-(2-(1,1-dioxidothiomorpholino)acetamido)propanamido)-3-(4-methoxyphenyl) propanamide], in the data set “Solubility pH 7”, the solubility was 1520 µg/mL (≈ 2.4 mM). Moreover, the pIC50 is 6.50 in data set [1] and 5.38 in data set [2].

The compound `Cc1ccc(C[C@H](NC(=O)[C@H](C)NC(=O)CN2CCOCC2)C(=O)N[C@@H](CC2=CCCC2)C(=O)[C@@]2(C)CO2)cc1O` [Compound C-1129, (S)-N-((S)-3-(cyclopent-1-en-1-yl)-1-((R)-2-methyloxiran-2-yl)-1-oxopropan-2-yl)-3-(3-hydroxy-4-methylphenyl)-2-((S)-2-(2-morpholinoacetamido)propanamido) propanamide] registered a solubility in “Solubility pH 7” of 1760 µg/mL (≈ 3.08 mM). Also, the pIC50 was 7.12 in data set [1] and 6.10 in data set [2].

As to `COc1ccc(C[C@H](NC(=O)[C@H](CC#N)NC(=O)CN2CCOCC2)C(=O)N[C@@H](CC2=CCCC2)C(=O)[C@@]2(C)CO2)cc1` [Compound C-1135, (S)-3-Cyano-N-((S)-1-(((S)-3-(cyclopent-1-en-1-yl)-1-((R)-2-methyloxiran-2-yl)-1-oxopropan-2-yl)amino)-3-(4-methoxyphenyl)-1-oxopropan-2-yl)-2-(2-morpholinoacetamido)propanamide], the concentration in solution in “Solubility pH 7” (solubility) came to 1860 µg/mL (≈ 3.13 mM). In addition, the pIC50 in data set [1] was 7.51; in data set [2] it was 6.54.

As for `CCc1ccc(C[C@H](NC(=O)[C@H](C)NC(=O)CN2CCOCC2)C(=O)N[C@@H](CC2=CCCC2)C(=O)[C@@]2(C)CO2)cc1O` [Compound C-1136, (S)-N-((S)-3-(cyclopent-1-en-1-yl)-1-((R)-2-methyloxiran-2-yl)-1-oxopropan-2-yl)-3-(4-ethyl-3-hydroxyphenyl)-2-((S)-2-(2-morpholinoacetamido)propanamido)propanamide], in the data set “Solubility pH 7”, the solubility came to 54.4 µg/mL (≈ 0.093 mM). In addition, the negative-log IC50 (pIC50) is 7.34 in data set [1] and 6.40 in data set [2].

(Values after patent USRE47302E1 (ONYX THERAPEUTICS INC., priority 2013, dated 2019).)
